Our source for the kinact/KI, EC50 and CC50 values is patent US6872745B2, “Antipicornaviral compounds and compositions, their pharmaceutical uses, and materials for their synthesis” (Agouron Pharmaceuticals, Inc., priority 2000, dated 2005).

Data set [1] addresses T1, rhinovirus 3C protease, serotype 14 (Human rhinovirus 14, UniProt P03303).
T1 construct: Recombinant rhinovirus 3C proteases; made in house
Kind of data set: Inhibition of rhinovirus 3C protease (FRET assay, enzyme start). Format: biochemical. The following applies: HRV-14 3C protease, progress curves, read-out: Kobs/I. How it is done:
Stock solutions (50 mM, in DMSO) of various compounds were prepared; dilutions were in the same solvent. Recombinant rhinovirus 3C proteases (see Birch et al., “Purification of recombinant human rhinovirus 14 3C protease expressed in Escherichia coli,” Protein Expr. Pur. (1995), vol. 6(5), 609-618) from serotypes 14, 16, and 2 were prepared by the following standard chromatographic procedures: (1) ion exchange using Q Sepharose Fast Flow from Pharmacia; (2) affinity chromatography using Affi-Gel Blue from Biorad; and (3) sizing using Sephadex G-100 from Pharmacia. Each assay sample contained 2% DMSO, 50 mM tris pH 7.6, 1 mM EDTA, a test compound at the indicated concentration, approximately 1 μM substrate, and 50-100 nM protease. The kobs/I values were obtained from reactions initiated by addition of enzyme rather than substrate. RVP activity was measured in the fluorescence resonance energy transfer assay. The substrate was (N-terminal) DABCYL-(Gly-Arg-Ala-Val-Phe-Gln-Gly-Pro-Val-Gly)-EDANS. In the uncleaved peptide, the EDANS fluorescence was quenched by the proximal DABCYL moiety. When the peptide was cleaved, the quenching was relieved, and activity was measured as an increase in fluorescence signal. The tabulated data in the column designated kobs/[I] were measured from progress curves in enzyme start experiments.

In a further data set the test system is HRV-14. Kind of data set: Antirhinoviral H1-HeLa cell culture assay (XTT cell protection). Format: cell-based, human rhinovirus. The following applies: Rhinovirus B, HRV14, H1-HeLa, HRV-14, H1-HeLa cells. As to the method: (§1) In this cell protection assay, the ability of compounds to protect cells against HRV infection was measured by the XTT dye reduction method, which is described in Weislow et al., J. Natl. Cancer Inst. (1989), vol. 81, 577-586. H1-HeLa cells were infected with HRV-14 at a multiplicity of infection (m.o.i.) of 0.13 (virus particles/cell) or mock-infected with medium only. Infected or mock-infected cells were resuspended at 8×10^5 cells per ml, and incubated with appropriate concentrations of the compounds to be tested. Two days later, XTT/PMS was added to test plates and the amount of formazan produced was quantified spectrophotometrically at 450/650 nm. The EC50 value was calculated as the concentration of compound that increased the percentage of formazan production in compound-treated, virus-infected cells to 50% of that produced by compound-free, mock-infected cells. The 50% cytotoxic dose (CC50) was calculated as the concentration of compound that decreased the percentage of formazan produced in compound-treated, mock-infected cells to 50% of that produced by compound-free, mock-infected cells. The therapeutic index (TI) was calculated by dividing the CC50 value by the EC50 value.
(§2) All strains of human rhinovirus (HRV) for use in this assay were purchased from American Type Culture Collection (ATCC), except for HRV serotype-14 (produced from the infectious cDNA clone constructed by Dr. Robert Rueckert, Institute for Molecular Virology, University of Wisconsin, Madison, Wis.). HRV stocks were propagated and viral assays were performed in H1-HeLa cells (ATCC). Cells were grown in minimal essential medium with 10% fetal bovine serum, available from Life Technologies (Gaithersburg, Md.).

Data set [2] is described as follows: Cytotoxicity in mock-infected cells of the antirhinoviral assay (XTT). Conditions: human, H1-HeLa cells, table line HRV-14. Format: cell-based. As to the method:
as §1, §2

T1 sequence (P03303 1538-1719): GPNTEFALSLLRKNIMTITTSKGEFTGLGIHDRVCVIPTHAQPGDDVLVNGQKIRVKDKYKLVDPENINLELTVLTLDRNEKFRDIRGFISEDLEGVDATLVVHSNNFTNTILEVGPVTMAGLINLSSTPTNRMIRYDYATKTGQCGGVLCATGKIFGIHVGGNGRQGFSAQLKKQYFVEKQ

With `CCOC(=O)/C=C/[C@H](CCC(N)=O)NC(=O)[C@H](Cc1ccccc1)NC(=O)c1ccc(-c2cccc(Cl)c2Cl)[nH]1` [Compound 1], the kinact/KI in data set [1] turned out to be 20300 M⁻¹ s⁻¹. For the same compound, the EC50 – broadly, the concentration that produces a half-maximal response – in the data set with HRV-14 was 0.202 µM. Also, the CC50 (in general, the concentration that lowers cell viability or growth by half) at 2 days in data set [2] is above 10 µM.

Consider `CCOC(=O)/C=C/[C@H](CCC(N)=O)NC(=O)[C@H](Cc1ccccc1)NC(=O)c1ccc(-c2ccccc2C(F)(F)F)[nH]1` [Compound 2, 6-Carbamoyl-4S-{3-phenyl-2S-[(5-(2-trifluoromethyl-phenyl)-1H-pyrrole-2-carbonyl)-amino]-propionylamino}-hex-2(trans)-enoic acid ethyl ester], for which the kinact/KI in data set [1] turned out to be 32400 M⁻¹ s⁻¹. The EC50 in the data set on HRV-14 turned out to be 0.064 µM. This compound also came in with a CC50 at 2 days in data set [2] above 10 µM.

Turning to `CCOC(=O)/C=C/[C@H](CCC(N)=O)NC(=O)[C@H](Cc1ccccc1)NC(=O)c1ccc(-c2cccc3ccccc23)[nH]1` [Compound 3], in data set [1], the kinact/KI was 30800 M⁻¹ s⁻¹. For the same compound, the EC50 in the data set with HRV-14 worked out at 0.109 µM. For the same compound, the CC50 at 2 days in data set [2] is above 10 µM.

On to `CCOC(=O)/C=C/[C@H](CCC(N)=O)NC(=O)[C@H](Cc1ccccc1)NC(=O)c1ccc(-c2cc(Cl)ccc2OC)[nH]1` [Compound 4, 6-Carbamoyl-4S-(2S-{[5-(5-chloro-2-methoxy-phenyl)-1H-pyrrole-2-carbonyl]amino}-3-phenyl-propionylamino)-hex-2(trans)-enoic acid ethyl ester], for which the kinact/KI in data set [1] is 5860 M⁻¹ s⁻¹.

With `CCOC(=O)/C=C/[C@H](CCC(N)=O)NC(=O)[C@H](Cc1ccccc1)NC(=O)c1ccc(-c2cncc3ccccc23)[nH]1` [Compound 5, 6-Carbamoyl-4S-{2S-[(5-isoquinolin-4-yl-1H-pyrrole-2-carbonyl)-amino]-3-phenyl-propionylamino}-hex-2(trans)-enoic acid ethyl ester], in data set [1], the kinact/KI is 12700 M⁻¹ s⁻¹. The compound also yielded an EC50 with HRV-14 of 1.1 µM. Also, the CC50 at 2 days in data set [2] was above 10 µM.

`CCOC(=O)/C=C/[C@H](CCC(N)=O)NC(=O)[C@H](Cc1ccccc1)NC(=O)c1ccc(-c2cccc(C(C)C)c2)[nH]1` [Compound 6, 6-Carbamoyl-4S-(2S-{[5-(3-isopropyl-phenyl)-1H-pyrrole-2-carbonyl]-amino}-3-phenyl-propionylamino)-hex-2(trans)-enoic acid ethyl ester]: the kinact/KI in data set [1] turned out to be 2130 M⁻¹ s⁻¹. The compound further registered an EC50 in the data set on HRV-14 of 1.43 µM. Besides, in data set [2], the CC50 at 2 days is above 10 µM.

Turning to `CCOC(=O)/C=C/[C@H](CCC(N)=O)NC(=O)[C@H](Cc1ccccc1)NC(=O)c1ccc(-c2cc(OC)ccc2OC)[nH]1` [Compound 7, 6-Carbamoyl-4S-(2S-{[5-(2,5-dimethoxy-phenyl)-1H-pyrrole-2-carbonyl]-amino}-3-phenyl-propionylamino)-hex-2-enoic acid ethyl ester], the kinact/KI in data set [1] stood at 5200 M⁻¹ s⁻¹. For the same compound, in the data set on HRV-14, it took 0.3 µM to reach a half-maximal effect (EC50). In data set [2], the cytotoxic concentration (CC50) at 2 days was above 10 µM.

Take `CCOC(=O)/C=C/[C@H](CCC(N)=O)NC(=O)[C@H](Cc1ccccc1)NC(=O)c1ccc(-c2cccnc2)[nH]1` [Compound 8, 6-Carbamoyl-4S-{3-phenyl-2S-[(5-pyridin-3-yl-1H-pyrrole-2-carbonyl)-amino]-propionylamino}-hex-2(trans)-enoic acid ethyl ester]: the kinact/KI in data set [1] stood at 1300 M⁻¹ s⁻¹. The compound further yielded an EC50 in the data set with HRV-14 of 4.92 µM. The half-maximal cytotoxic concentration (CC50) at 2 days in data set [2] is above 10 µM.

`CCOC(=O)/C=C/[C@H](CCC(N)=O)NC(=O)[C@H](Cc1ccccc1)NC(=O)c1ccc(-c2ccccc2C)[nH]1` [Compound 9, 6-Carbamoyl-4S-{3-phenyl-2S-[(5-o-tolyl-1H-pyrrole-2-carbonyl)-amino]-propionylamino}-hex-2(trans)-enoic acid ethyl ester]: the kinact/KI in data set [1] amounted to 12600 M⁻¹ s⁻¹.

Take `CCOC(=O)/C=C/[C@H](CCC(N)=O)NC(=O)[C@H](Cc1ccccc1)NC(=O)c1ccc(-c2ccccc2)[nH]1` [Compound 10, 6-Carbamoyl-4S-{3-phenyl-2S-[(5-phenyl-1H-pyrrole-2-carbonyl)-amino]-propionylamino}-hex-2(trans)-enoic acid ethyl ester]: in data set [1], the kinact/KI was found to be 2370 M⁻¹ s⁻¹.

In the case of `CCOC(=O)/C=C/[C@H](CCC(N)=O)NC(=O)[C@H](Cc1ccccc1)NC(=O)c1ccc(-c2ccccc2OC)[nH]1` [Compound 11, 6-Carbamoyl-4S-(2S-{[5-(2-methoxy-phenyl)-1H-pyrrole-2-carbonyl]-amino}-3-phenyl-propionylamino)-hex-2(trans)-enoic acid ethyl ester], in data set [1], the kinact/KI was 5000 M⁻¹ s⁻¹. Also, in the data set with HRV-14, the EC50 was 0.646 µM. Moreover, in data set [2], the CC50 at 2 days is above 10 µM.

For the compound `CCOC(=O)/C=C/[C@H](CCC(N)=O)NC(=O)[C@H](Cc1ccccc1)NC(=O)c1ccc(-c2cccc3c2OCO3)[nH]1` [Compound 12], in data set [1], the kinact/KI was found to be 2700 M⁻¹ s⁻¹. In the data set on HRV-14, the midpoint of the response, the EC50, lay at 1.25 µM. The compound also showed a CC50 at 2 days in data set [2] above 10 µM.

For `CCOC(=O)/C=C/[C@H](CCC(N)=O)NC(=O)[C@H](Cc1ccccc1)NC(=O)c1ccc(C(C)CC(F)(F)F)[nH]1` (stereo partly drawn) [Compound 13, 6-Carbamoyl-4S-(3-phenyl-2S-{[5-(3,3,3-trifluoro-1 methyl-propyl)-1H-pyrrole-2-carbonyl]-amino}-propionylamino)-hex-2(trans)-enoic acid ethyl ester], the kinact/KI in data set [1] stood at 6570 M⁻¹ s⁻¹. The same compound gave an EC50 with HRV-14 of 2.01 µM. The same compound had a CC50 at 2 days in data set [2] above 10 µM.

Turning to `CCOC(=O)/C=C/[C@H](CCC(N)=O)NC(=O)[C@H](Cc1ccccc1)NC(=O)c1ccc(-c2cc(C)no2)[nH]1` [Compound 21, 6-Carbamoyl-4S-(2S-{[5-(3-methyl-isoxazol-5-yl)-1H-pyrrole-2-carbonyl]-amino}-3-phenyl-propionylamino)-hex-2(trans)-enoic acid ethyl ester], the kinact/KI in data set [1] was determined as 1380 M⁻¹ s⁻¹.

Turning to `O=C1OCC/C1=C\[C@H](C[C@@H]1CCNC1=O)NC(=O)C(CC(=O)c1ccc(-c2ccccc2)[nH]1)Cc1ccc(F)cc1` (stereo partly drawn) [Compound 31, 2-(R,S)-(4-Fluorobenzyl)-4-oxo-N-[2-(2-oxo-dihydro-furan-3-ylidine)-1S-(2-oxo-pyrrolidin-3S-ylmethyl)-ethyl]-4-(5-phenyl-1H-pyrrol-2-yl)-butyramide], in data set [1], the kinact/KI was found to be 900 M⁻¹ s⁻¹.

On to `O=C1OCC/C1=C\[C@H](C[C@@H]1CCNC1=O)NC(=O)[C@H](CC(=O)c1ccc(-c2cccc3ccccc23)[nH]1)Cc1ccc(F)cc1` [Compound 32, 2-(R,S)-(4-Fluorobenzyl)-4-(5-naphthalen-1-yl-1H-pyrrol-2-yl)-4-oxo-N-[2-(2-oxo-dihydro-furan-3-ylidine)-1S-(2-oxo-pyrrolidin-3S-ylmethyl)-ethyl]-butyramide], for which the kinact/KI in data set [1] amounted to 8300 M⁻¹ s⁻¹.

As for `O=C1OCC/C1=C\[C@H](C[C@@H]1CCNC1=O)NC(=O)C(CC(=O)c1ccc[nH]1)Cc1ccc(F)cc1` (stereo partly drawn) [Compound 34, 2-(R,S)-(4-Fluorobenzyl)-4-oxo-N-[2-(2-oxo-dihydro-furan-3-ylidine)-1S-(2-oxo-pyrrolidin-3S-ylmethyl)-ethyl]-4-(1H-pyrrol-2-yl)-butyramide], the kinact/KI in data set [1] worked out at 520 M⁻¹ s⁻¹.

As for `CCOC(=O)/C=C/[C@H](C[C@@H]1CCNC1=O)NC(=O)[C@H](Cc1ccc(F)cc1)NC(=O)c1cc2ccccc2[nH]1` [Compound 42, Ethyl-3-{(Indole-2-carboxylic acid)-L-(4-F-Phe)-L-[(S)-Pyrrol-Ala]}-E-Propenoate], in data set [1], the kinact/KI was 42 M⁻¹ s⁻¹.

Consider `CCOC(=O)/C=C/[C@H](C[C@@H]1CCNC1=O)NC(=O)CCC(C)=O` [Compound 43, 4S-(4-oxo-pentanoylamino)-5-(2-oxo-pyrrolidin-3S-yl)-pent-2-enoic acid ethyl ester], for which, in data set [1], the kinact/KI came to 85 M⁻¹ s⁻¹.

On to `CCOC(=O)/C=C/[C@H](C[C@@H]1CCNC1=O)NC(=O)CCC(=O)c1ccccc1` [Compound 44, 4S-(4-oxo-4-phenyl-butyrylamino)-5-(2-oxo-pyrrolidin-3S-yl)-pent-2-enoic acid ethyl ester], for which, in data set [1], the kinact/KI was 1030 M⁻¹ s⁻¹.

As to `CCOC(=O)/C=C/[C@H](C[C@@H]1CCNC1=O)NC(=O)CCC(=O)c1cccc2ccccc12` [Compound 45, 4-S-(4-Naphthalen-1-yl-4-oxo-butyrylamino)-5-(2-oxo-pyrrolidin-3S-yl)-pent-2-enoic acid ethyl ester], in data set [1], the kinact/KI came out at 629 M⁻¹ s⁻¹.
